Measured values: PMC10528299, “Targeting FAK/PYK2 with SJP1602 for Anti-Tumor Activity in Triple-Negative Breast Cancer” (Current Issues in Molecular Biology, 2023)

How the values were obtained:
[1] = Pharmacokinetics in SD rats; assay type: in vivo, rat
Procedure: The pharmacokinetics (PK) study was conducted in male SD rats. Three rats received a single-dose intravenous injection of SJP1602 at 5 mg/kg, and another set of three rats received a single-dose oral administration of SJP1602 at 20 mg/kg. The vehicle composition used was DMA 3% and Cremophor ELP 4%. Blood drug concentrations over time were determined by drawing blood after 0.17, 0.5, 1, 2, 4, 6, and 24 h. Plasma was isolated using K3EDTA anticoagulation tubes, and the drug concentration in the plasma was analyzed by LC/MS/MS (Waters, MA, USA). To analyze the concentration of pretreated rat plasma samples, a Waters Acquity ultra-performance liquid chromatography system (UPLC, Waters) was employed, in tandem with a C18 column (Acquity UPLC® BEH C18 1.7 μm, 2.1 × 50 mm). The mass spectrometry analysis was conducted using the Waters Xevo-TQ-S micro. For the mobile phases, phase A consisted of distilled water with 0.1% formic acid, while phase B comprised methanol, also with 0.1% formic acid. PK parameters were subsequently derived using WinNonlin software (version 2.1), which enabled the determination of AUC (ng×h/mL), Cmax (ng/mL), and bioavailability (BA). The area under the drug concentration curve (AUC) was calculated utilizing the trapezoidal rule, focusing on the time interval AUC0–24h.

[2] = Cytotoxicity on normal cell line HEK293T; assay type: cell-based; conditions: human, HEK293T cells (normal cell line); read-out: Cytotoxicity on Normal Cell Lines IC50
[3] = male, SD, rat, plasma, po, 20 mg/kg, po 20 mg/kg, male SD rats
[4] = rat, plasma, iv 5 mg/kg, male SD rats
[5] = rat, plasma, po 20 mg/kg, male SD rats

For `CNC(=O)c1cccc(C)c1Nc1nc(Nc2ccc(N3CCN(C4C5CC6CC4CC(O)(C6)C5)CC3)cc2OC)ncc1C(F)(F)F` (stereo not shown) [SJP1602, 2-((2-((4-(4-((2s,5r)-5-hydroxyadamantan-2-yl)piperazin-1-yl)-2-methoxyphenyl)amino)-5-(trifluoromethyl)pyrimidin-4-yl)amino)-N,3-dimethylbenzamide], the half-life ([1]; male, SD, rat, plasma, iv, 5 mg/kg, iv 5 mg/kg, male SD rats) was 0.93 ± 0.25 h, the bioavailability [1, 3] was 45% and the half-life [1, 3] was 2.2 h. For the same compound, the AUC ([1]; male, SD, rat, plasma, single oral dose 20 mg/kg, rats, read-out: area under the curve (AUC)) was 22 µM·h, the T1/2 ([1]; po 20 mg/kg, male SD rats, 20 mg/kg) was 2.24 ± 0.19 h and the AUC(0-t) [1, 4] was 7070 ng·h/mL. It also gave a Cmax [1, 4] of 3890 ng/mL, a Tmax [1, 4] of 0.28 h and an AUC(0-t) [1, 5] of 14700 ng·h/mL. The Cmax [1, 5] was 3270 ng/mL, the Tmax [1, 5] was 1 h and the peak concentration ([1]; single oral dose 20 mg/kg, rats) was 4.9 µmol/L. The IC50 [2] was > 10 µM.
